# In patent US20140377390A1, “Cosmetic Compositions Comprising Plant Extracts for Combating Skin Aging” (CASTER, priority 2013, published 2014):
# [ ]: non-standard residue; d: D form. Cit = NC(=O)NCCC[C@H](N)C(=O)O
# B1: KGF: KGF (Sigma), growth factor, positive control (protein, UniProt P21781 32-194, looked up)
# Fibroblast growth factor 7: CNDMTPEQMATNVNCSSPERHTRSYDYMEGGDIRVRRLFCRTQWYLRIDKRGKVKGTQEMKNNYNIMEIRTVAVGIVAIKGVESEFYLAMNKEGKLYAKKECNEDCNFKELILENHYNTYASAKWTHNGGEMFVALNQKGIPVRGKKTKKEQKTAHFLPMAIT
# Experiments:
# [1] = test system: MDR (Multidrug Resistance Proteins) in HDFa cells; test: MDR activity test (calcein retention, Vybrant MDR Resistance Assay Kit); settings: 24 hours, control = 100%
# Description: In normal cells, non-fluorescent calcein enters the cell and accumulates therein. It is hydrolysed therein by endogenous esterases, and becomes fluorescent. In cells in which MDR expression is increased, the presence of these protein transporters makes it possible to expel the calcein out of the cell before it is cleaved: there is no fluorescence.
# To do this, the Molecular Probes Vybrant MDR Resistance Assay Kit (V13180 Invitrogen Life Science) is used.
# These cells are then in passage 4. The cells are left to stand for 48 h for adhesion in an incubator at 37° C. and 5% CO2. […] This stock solution at 10 mg/ml is then diluted in PBS until the working concentration is obtained; • 5 wells with FGF (Sigma) at 5 nM final concentration in the well (positive control) or KGF (Sigma) at 25 ng/ml.
# The cells comprising active agents are incubated at 37° C., 5% CO2 for 24 hours.
# On D3, a labelling solution is prepared by diluting the calcein solution of the kit at 1 mM (component A of the Invitrogen Life Science kit V13180) in PBS, so as to achieve a concentration of 1 μM (1000× dilution); 50 μl of calcein diluted to 1 μM are provided per well, i.e. 5 ml per 96-well plate. […]
# The calcein retention is measured on a Perkin Elmer Enspire® Multimode Reader fluorescence spectrophotometer, by reading the fluorescein fluorescence (λexcitation: 494 nm, λemission: 512 nm). […]
# [2] = test system: primary human fibroblast cells (HDFa); test: Evaluation of cytotoxicity, MTT colorimetric test (cell vitality); type: cell-based; settings: relative to untreated cells = 100%
# Description: This test serves to define the maximum tolerable dose that can be used on the cells without a toxic effect, by means of a rapid and sensitive quantification of the cell proliferation and of the cell viability as a function of the compositions according to the invention.
# Briefly, the colorimetric test is based on the activity of a mitochondrial enzyme, succinate dehydrogenase, which degrades the yellow substrate MTT (3-[4,5-dimethylthiazol-2-yl]-2,5-diphenyltetrazolium bromide) into formazan crystals (violet). The amount of formazan salt produced by the cells from the MTT indicates the cell vitality and is measured by spectrophotometry at 570 nm.
# In passage 3, the cells were seeded into 96-well plates in a proportion of 2000 cells in a volume of 200 μl of culture medium (Tebu-Bio—Fibroblast Growth Medium—500 ml—Ref 95116500).
# On day 7 after seeding of the cells (the medium having been replaced with fresh medium every two days), the culture medium (Tebu-Bio—Fibroblast Growth Medium—500 ml—Ref. 95116500) is removed and 200 μl of the active agent to be tested, diluted in culture medium (no less than 50% of medium), are added and then the cells are reincubated (37° C., 5% CO2).
# On the day of the test, 2 ml of fresh MTT solution are prepared by diluting the MTT powder (Thiazolyl Blue Tetrazolium Bromide, Sigma ref. M 5655) to 5 mg/ml in PBS.
# 20 μl of MTT solution are added to each well. After homogenization, the plate is reincubated (37° C., 5% CO2) for 3 to 4 hours so as to allow metabolization of the MTT.
# During this time, the MTT solubilization solution is prepared (DMSO/Isopropanol—1:1). The culture medium is removed by suctioning, and then the plate is dried with absorbent paper. The formazan crystals which have formed are then resuspended with 150 μl of MTT solubilization solution, by agitation at 150 rpm for 15 minutes at ambient temperature.
# The optical density is then read at 570 nm on a Perkin Elmer Enspire® Multimode Reader spectrophotometer, with the OD at 670 nm (background noise) being removed.
# The result is expressed as a function of the % absorption relative to the % absorption noted for the control cells (not treated with a compound).
molecule,measurement,setting,value
"COc1ccc(CCN(C)CCCC(C#N)(c2ccc(OC)c(OC)c2)C(C)C)cc1OC (centres unmarked) [Verapamil, verapamil, reference compound]",% calcein retention,"[1]; 30 μg/ml, greater than 100 = inhibits MDR activity",139.1%
H-KDV[Cit]-NH2 [Peptide],% vitality,[2]; peptide concentration 0.000001%,94.6%
same,% vitality,[2]; peptide concentration 0.00001%,71.0%
same,% vitality,[2]; peptide concentration 0.00002%,66.9%
same,% vitality,[2]; peptide concentration 0.00004%,72.0%
same,% vitality,[2]; peptide concentration 0.00006%,44.7%
same,% vitality,[2]; peptide concentration 0.00008%,57.3%
same,% vitality,[2]; peptide concentration 0.0001%,39.8%
same,% vitality,[2]; peptide concentration 0.0002%,47.6%
same,% vitality,[2]; peptide concentration 0.005%,49.7%
B1,% calcein retention,"[1]; 25 ng/ml, less than 100 = stimulates MDR activity",92.3%
